Measured values taken from a melting point compilation (Tetko et al.; mined from patent text by program, amines drawn as free bases though some values may be those of a salt).

| melting point [°C] | Structure (SMILES) |
| --- | --- |
| 131 | COc1cc(CC#N)c(CCNC(=O)C(F)(F)F)cc1OC |
| 113 to 114 | CC(C)(C)OC(=O)NCCCCNOC(=O)c1ccccc1 |
| 254 to 256 | O=c1oc2cc(O)cc(O)c2c(O)c1C1=CCOc2oc3ccccc3c(=O)c21 |
| 223 to 225 | CC(=O)c1cc2c(s1)C(NC(=O)c1ccc([N+](=O)[O-])cc1)C(O)C(C)(C)O2 (stereo not given) |
| 186 | O=S(=O)(c1cccc(-c2cc(-c3nc(-c4ccc(C(F)(F)F)cc4)cc(C(F)(F)F)n3)ccn2)c1)N(CCO)CCO |
| 169 to 172 | CCn1cc(C(=O)NCc2ccc(Cl)cc2)c(=O)c2cc(CO)sc21 |
| 195 to 197 | COc1ccc2c(O)cc(=O)oc2c1C |
| 223 | N=C(N)c1ccc(NC(C(=O)O)c2ccccc2OCC(=O)O)cc1 (racemic) |
| 51 to 54 | C[Si](C)(C)C#Cc1ccnc(Cl)n1 |
| 100 to 111 | COc1ccc(C2CNCCc3c2cc(OC)c(OC)c3C)cc1 (stereo not given) |
| 198 | COc1cc(N2CCCC2)ccc1CN1C(=O)C(C)(c2ccccc2Cl)c2cc(Cl)ccc21 (stereo not given) |
| 160 | Cc1nn(C)c(=O)n1-c1ccc(N)cc1 |
| 110 to 113 | COC(=O)CN1CCN2C(Cc3cc(OC)c(OC)cc3C2c2ccccc2)C1 (stereo not given) |
| 136 to 138 | Oc1ccc(Cl)nc1Cl |
| 174 to 178 | CC1(C)Cc2sccc2C(NC(N)=O)C1 (stereo not given) |
| 127 to 128 | O=C1c2ccccc2C(=O)N1CC(=O)N1c2ccccc2N(Cc2ccccc2)C(=O)CC1c1ccccc1 (stereo not given) |
| 147 to 148 | C=CCOc1nc2c(c3ccccc13)c1cc(Cl)ccc1n2C |
| 182 to 184 | CCOC(=O)c1oc2ccc(Cc3ccc(O)cc3)c(O)c2c1C |
| 118 to 119 | CCCCCCCCc1ccc(OCC(O)Cn2ccc3cc(C(N)=O)ccc32)cc1 (stereo not given) |
| 118 to 120 | CCCc1nn(CC)c2c(=O)n(CCCOc3ccc(SC(C)(C)C(=O)O)cc3)c(C)nc12 |
| 208 to 210 | COc1ccc(NC(C)=O)cc1C(=O)O |
| 164 to 165 | CC(=Cc1ccc(F)cc1)COc1cc(C)c(NC=O)c(C)c1C |
| 158 | CC(=O)C(=Cc1cc([N+](=O)[O-])c(O)c([N+](=O)[O-])c1)C(C)=O |

| melting point [°C] | Structure (SMILES) |
| --- | --- |
| 242 | Nc1ccc(-c2noc(-c3cnn4c(C(F)F)cc(-c5ccc(C(F)(F)F)c(F)c5)nc34)n2)cn1 |
| 60 to 61 | CC(C)CN(Cc1csc(C(C)C)n1)C(=O)N[C@H](C(=O)N[C@@H](Cc1ccccc1)C[C@H](O)[C@H](Cc1ccccc1)NC(=O)OCc1cncs1)C(C)C |
| 108 to 110 | Cc1ccc(CN2C(=O)c3cccc4cccc2c34)cc1 |
| 86 | CC(C)C[C@@H](O)CC(=O)O |
| 85 to 87 | COCCC1(C(=O)N[C@@H](Cc2ccc(NC(=O)c3c(Cl)cccc3Cl)cc2)C(=O)OC)CCCC1 |
| 133 to 134 | CN(C(=O)c1ccc(-n2cc3ccccc3n2)cc1)[C@@H]1CCN(C(=O)OC(C)(C)C)C1 |
| 144 to 147 | Oc1c(Cl)cc(Cl)c2cc(Cl)cnc12 |
| 79 to 80 | O=Cc1cc(Br)ccc1OCCc1ccccc1 |
| 124 to 126 | C=C(c1ccc(OC)cc1)c1ccc(N(C)C)cc1 |
| 180 to 182 | Cc1ncc2c(c1-c1nnn[nH]1)COc1ccccc1C2=O |
| 206 to 209 | Cc1nc2c(N)nc3ccccc3c2n1CCCCS(C)(=O)=O |
| 132 to 133 | C1CCc2c(c3c(N4CCCC4)nc(N4CCCC4)nc3n2CCN2CCOCC2)C1 |
| 172 to 175 | CN(C)CCCn1cc(C(=O)NCc2ccc(Cl)cc2)c(=O)c2cc(C#CCO)ccc21 |
| > 200 | Cc1ncc2cc(C#N)c(O)nc2n1 |
| 251 to 254 | Fc1cnc(Nc2nc3c(s2)CCN(CCCN2CCOCC2)c2n[nH]cc2-3)nc1 |
| 152 to 154 | O=C(Nc1cccc(Oc2cccc(C(=O)O)c2)c1)NC12CC3CC(CC(C3)C1)C2 |
| 133 to 135 | CC(C)(C)OC(=O)N1CCN2C(=O)OC(c3ccccc3)C2C1 (stereo not given) |
| 119 to 120 | CCOC(=O)c1cnc2n(c1=O)C(C)CC=C2Nc1ccccc1 (stereo not given) |
| 204 to 206 | CN(C)CCSC(=O)c1c[nH]c(=S)n1C1CCc2c(F)cc(F)cc2C1 (stereo not given) |
| 108 | CCOC(=O)COc1cccc(C2C(C(=O)OCC)=C(C)NC(C)=C2C(=O)OCC)c1 |
| 224 | COc1cc(C(=O)Nc2cc(Oc3ccc4nc(NC(=O)C5CC5)cn4n3)ccc2C)n(C)n1 |
| 108 to 110 | Cc1nc(N2CCc3ccccc3CC2)c(C#N)c(=O)n1CC(F)(F)F |
| 120 to 121 | CCN1C(=O)C(C)(C)C(=O)N(C)c2cc(CN(CCn3c(=O)ccc4ccccc43)Cc3cnccc3C)ccc21 |

| melting point [°C] | Structure (SMILES) |
| --- | --- |
| 172 to 174 | Cc1sc2c(Br)c3ccccc3c(-c3cc(Br)c(O)c(Br)c3)c2c1C |
| 70 to 83 | COC(=O)CCc1cc(C)c(O)c(C)c1 |
| 148 to 149 | NC(=S)NCCC(O)(c1ccc(F)cc1)c1ccccn1 (stereo not given) |
| 237 to 242 | CCNCC1CN(c2c(F)cc3c(=O)c(C(=O)O)cn(C4CC4)c3c2F)C1 |
| 290 to 291 | Cc1[nH]n(Cc2cc([N+](=O)[O-])ccc2Cl)c2nc(-c3ccncc3)nc(=O)c1-2 |
| 404 to 412 | c1ccc2c(c1)-c1ccccc1C21c2ccccc2-c2ccc(-n3ccnc3-c3nccn3-c3ccc4c(c3)C3(c5ccccc5-c5ccccc53)c3ccccc3-4)cc21 |
| 196 to 198 | CCOc1cccc2cc(S(=O)(=O)Nc3ccc(OC)cc3)c(=O)oc12 |
| 96 to 98 | CCN1c2ncc(CS(=O)(=O)c3ccccc3)cc2C(=O)N(C)c2ccc(Cl)nc21 |
| 151 to 152 | CC(=O)Nc1cc(Cl)c(O)c(Cl)c1 |
| 153 to 154 | N#CCCNC(=O)c1cccc(-c2ccnc3cc(Cc4cccc(C(F)(F)F)c4)nn23)c1 |
| 141 to 143 | Nc1ccc(N2CCN(Cc3ccccc3)CC2)cc1CS(=O)(=O)c1ccccc1 |
| 122 to 123 | CSc1ccc(C(=O)c2c(C)cc3n2CCC3C(=O)OC(C)c2ccccc2)n1C (stereo not given) |
| 186 to 188 | CC1CC(=O)NN=C1c1ccc(Cl)c([N+](=O)[O-])c1 (stereo not given) |
| 208 to 210 | N#Cc1ccc(C(=O)N2CCNC2=Nc2c(Cl)cccc2Cl)cc1 |
| 86 to 89 | CC(CO)c1ccc(O)c(Cc2ccccc2O)c1 (stereo not given) |
| 171 to 173 | CC(NC(=O)NO)c1ccc2cc(OCc3csc(-c4ccccc4)n3)ccc2c1 (single isomer, unassigned; (-)) |
| 169 to 170 | c1cc(NC2=NCCN2)ccc1Cc1ccc(OC2CCOCC2)cc1 |
| 100 to 101 | CCC(O)(c1ccc(Cl)cc1)c1ccc(OCc2cccc(C)n2)cc1 (stereo not given) |
| 136 to 137 | O=C1Nc2cc(F)ccc2C1CCCCN1CCN(c2ccccn2)CC1 (stereo not given) |
| 72 to 102 | O=C(SCCC(=O)N1C(c2ccccc2O)CC[C@H]1C(=O)N[C@@H](Cc1ccccc1)C(=O)O)c1ccccc1 (stereo not given in full) |
| 117 | c1ccc(Sc2cc(Sc3ccccc3)ncn2)cc1 |
| 160 to 163 | COc1cc2c(cc1[N+](=O)[O-])C(=O)C1(CC1)O2 |
| 165 to 166 | COc1ccc2c(c1)CCN1C[C@H]3CCCN(S(C)(=O)=O)[C@H]3C[C@@H]21 |

| melting point [°C] | Structure (SMILES) |
| --- | --- |
| 126 to 128 | COc1cc(OCc2ccccn2)ccc1/C=C/C(=O)CC(=O)/C=C/c1cc2ccccc2o1 |
| 91 to 93 | CCN(C(=O)SC(C)(C)C)c1cn(-c2cccnc2)nc1Cl |
| 143 | CC(C)OP(=O)(Cc1c(C2CCCCC2)cc(O)cc1C1CCCCC1)OC(C)C |
| > 260 | COc1cc(Cc2cnc(N)nc2N)cc2c1OC(C)(C)C=C2c1ccccc1 |
| 112 to 115 | O[C@@H](CNCCOc1ccc2oc(-c3noc(C(F)(F)F)n3)cc2c1)COc1ccccc1Cl |
| 212 to 214 | O=C1CCC2=C(CCc3cc(Cl)cc(Cl)c32)N1 |
| 128 to 129 | CCC(C)(C)NCc1nc2sc3c(c2c(-c2ccc(OC)c(OC)c2)c1Cl)CCN(Cc1ccccc1)C3 |
| 149 | COC(=O)C1(Sc2cc(N=c3sc(=O)n4n3CCCC4)c(F)cc2Cl)CC1 |
| 284 to 285 | CCN1c2ncccc2C(=O)N(C)c2ccc(-c3c[nH]c(C(N)=O)c3)nc21 |
| 141 to 148 | CN(Cc1cc2c(=O)c(C(=O)NCc3ccc(Cl)cc3)cn(C)c2o1)CC(CO)c1ccccc1 (stereo not given) |
| 52 to 54 | OCCCc1ccc(O)cc1 |
| 171 to 173 | CC(=O)Nc1ccc(C=Nc2cc(Cl)c(N=CN(C)C)c(Cl)c2)cc1 |
| 180 to 182 | CCOC(=O)c1ccc2nnc(-c3ncc([N+](=O)[O-])n3C)n2n1 |
| 151 to 153 | CN1CCN(CCCCC(=O)N2c3ccccc3C(=O)Nc3cccnc32)CC1 |
| 174 to 176 | CN(C)S(=O)(=O)c1ccc(N2CC(CO)OC2=O)cc1 (stereo not given) |
| 148 to 149 | Cc1ccc(C=Cc2ccc(N(c3ccccc3)c3ccc4c5c(cccc35)CC4)cc2)cc1 |
| 162 to 164 | Nc1ccc(OC2CCN(C(=O)OCc3ccccc3)C2)cc1CS(=O)(=O)c1cccc2ccccc12 (stereo not given) |
| 105 to 106 | COc1ccc(C=Cc2cc(Cl)c(OC)c(OC)c2)cc1O |
| 88 to 90 | CC(C)Oc1cc(CCCOc2ncccc2CC(=O)O)n(Cc2ccc(Cl)cc2Cl)n1 |
| 76 to 77 | Clc1ccc(C2CCc3ccccc3O2)cc1 (stereo not given) |
| 92 to 95 | CC(C)(C)C(CSC(F)F)=NO |
| 150 to 155 | CS(=O)(=O)c1ccc(-n2nc(CNC(=O)NC34CC5CC(CC(C5)C3)C4)cc2-c2ccccc2)cc1 |
| 175 to 177 | CCCCCCCCCCCCP(=O)(O)CCCN |

| Structure (SMILES) | melting point [°C] |
| --- | --- |
| COc1ccc2nc(COc3ccc4c(c3)C(SCCC(=O)O)c3ccccc3CO4)ccc2c1 (stereo not given) | 174 to 175 |
| COc1ccc(C(C)(O)CO)cc1CN[C@H]1C2CCN(CC2)[C@H]1C(c1ccccc1)c1ccccc1 (stereo not given in full) | 65.5 to 82.8 |
| CC(C)(C)C12OOC1(c1cc3cc(O[Si](C)(C)C(C)(C)C)ccc3s1)OCC2(C)C (stereo not given) | 125 to 126 |
